The values below come from US20240132449A1, “HETEROCYCLIC COMPOUNDS AND METHODS OF USE THEREOF” (1cBio, Inc., priority 2022, published 2024).

SMILES strings stand for the structures. Structures can show the parent of a compound that is named as a salt.

The target in assay [1] is PARP1 (Homo sapiens, UniProt P09874). Kind of assay: PARP1 fluorescence polarization binding assay. The settings on record: binding IC50, GST-tagged PARP1 20 nM, PARPi-FL 3 nM. The protocol:
Compounds of the present disclosure were tested in a PARP1 fluorescence polarization binding assay at Pharmaron (Beijing, P.R.China). In this biochemical assay, binding of test compound to recombinant human PARP1 reduces the amount of binding of a fluorescent probe, and consequently reduces the detected level of fluorescence polarization. Test compound stock solutions were prepared in DMSO and then serially diluted into 10 concentrations by 3-fold dilution in a 384-well plate using a TECAN EVO200. 60 nL of each dilution was transferred to the plate using an Echo550 (Labcyte), and then 10 μL 40 nM GST-tagged PARP1 (BPS Bioscience, Cat #80501), diluted in assay buffer (50 mM Tris pH 8.0, 0.001% Triton X-100, 10 mM MgCl2, 150 mM NaCl), was added to the plate. After a centrifugation at 1000 rpm for 1 min, the assay plate was incubated for 30 min at RT. 10 μL 6 nM PARPi-FL (TOCRIS, Cat #6461), diluted using assay buffer, was then added to the plate. The final concentrations of PARP1 and PARPi-FL were 20 nM and 3 nM, respectively, in a total volume of 20 μL. After a centrifugation at 1000 rpm for 1 min, the assay plate was incubated for 4 h at RT. Samples in each well were read using an Envision instrument (Perkin-Elmer; Ex=480 nm Em=FITC FP-P pol 535 nm & FITC FP-S pol 535 nm). Percent inhibition was calculated from mP values using Inhibition (%)=[1−(mPc−mPL)/(mPH−mPL)]×100%, where mPc, mPL, and mPH are the mP values of test compound, Low controls, and High controls, respectively. Binding IC50 values were calculated using XLFit (equation 201: y=A+((B−A)/(1+((x/C)^D))), where A=bottom, B=top, C=IC50, and D=slope) with a floating top and bottom for curves. Binding IC50 values are shown in Table A and are presented in ranges, in which “+++”<100 nM, 100 nM≤“++”<3000 nM, and “+”≥3000 nM.

The target of assay [2] is recombinant human PARP2 (Homo sapiens, UniProt Q9UGN5). Kind of assay: PARP2 fluorescence polarization binding assay. The settings on record: for IC50: binding IC50, GST-tagged PARP2 20 nM, PARPi-FL 3 nM; for inhibition at 10 µM: read-out: PARP2 % inh at 10 μM. The protocol:
Compounds of the present disclosure were tested in a PARP2 fluorescence polarization binding assay at Pharmaron (Beijing, P.R. China). In this biochemical assay, binding of test compound to recombinant human PARP2 reduces the amount of binding of a fluorescent probe, and consequently reduces the detected level of fluorescence polarization. Test compound stock solutions were prepared in DMSO and then serially diluted into 10 concentrations by 3-fold dilution in a 384-well plate using a TECAN EVO200. Alternatively, a single concentration was prepared. 60 nL of each dilution was transferred to the plate using an Echo550 (Labcyte), and then 10 μL 40 nM GST-tagged PARP2 (BPS Bioscience, Cat #80502), diluted in assay buffer (50 mM Tris pH 8.0, 0.001% Triton X-100, 10 mM MgCl2, 150 mM NaCl), was added to the plate. After a centrifugation at 1000 rpm for 1 min, the assay plate was incubated for 30 min at RT. 10 μL 6 nM PARPi-FL (TOCRIS, Cat #6461), diluted using assay buffer, was then added to the plate. […] After a centrifugation at 1000 rpm for 1 min, the assay plate was incubated for 4 h at RT. Samples in each well were read using an Envision instrument (Perkin-Elmer; Ex=480 nm Em=FITC FP-P pol 535 nm & FITC FP-S pol 535 nm). […] Binding IC50 values were calculated using XLFit (equation 201: […])^D))), where A=bottom, B=top, C=IC50, and D=slope) with a floating top and bottom for curves.
For orientation: Polarisation of emitted light reports the rotation of a fluorescent probe.

The test system of assay [3] is DLD-1 BRCA2(−/−) colorectal adenocarcinoma cells. The experiment in a line: Cell viability assay (Cell Titer-Glo), DLD-1 BRCA2(−/−). In kind it is cell-based. The settings on record: Homo sapiens, DLD-1, 168 h; 7 days incubation, 200 cells/well. Here is the method: (§1) Compounds of the present disclosure were tested for their effects on the viability of cancer cells. DLD-1 wild-type and DLD-1 BRCA2(−/−) colorectal adenocarcinoma cells, an isogenic pair of cell lines differing in the presence and absence, respectively, of both BRCA2 alleles, were used. The cells were harvested during the logarithmic growth period, counted, and seeded at 50 cells/well for DLD-1 wild-type and 200 cells/well for DLD-1 BRCA2(−/−) in a 384-well cell culture plate. After seeding, cells were incubated at 37° C., 5% CO2 overnight. Cells were treated with serially diluted test compounds at 10 concentrations (e.g., from 1.5 nM-30 μM) for generation of dose response curves, or at a single concentration. The plate was further incubated for another 7 days in a humidified incubator at 37° C. and 5% CO2. Cell viability was assessed by luminescence measurement after addition of Cell Titer-Glo reagent (Promega, Madison, Wis.) according to the manufacturer's instructions. Cell viability IC50 values were calculated using XLFit, equation 201: y=A+((B−A)/(1+((x/C)^D))), where A=bottom, B=top, C=IC50, and D=slope. IC50 values are shown in Table B and are presented in ranges, in which “+++”<300 nM, 300 nM≤“++”<3000 nM, and “+”≥3000 nM. Values for percent inhibition at 10 μM are also shown in Table B and are presented in ranges, in which “***”≥67%, 33%≤“**”<67%, and “*”<33%. Effects of the test compounds on the viability of other cell lines such as MDA-MB-436, MDA-MB-231, SUM149PT, HCC1395, and UWB1.289 are determined in an analogous method.
(In ATP-based viability assays light output follows the ATP content of the culture.)

The subject of assay [4] is DLD-1 wild-type colorectal adenocarcinoma cells. Kind of assay: Cell viability assay (Cell Titer-Glo), DLD-1 wild-type. The class given is cell-based. The conditions noted are these: Homo sapiens, DLD-1, 168 h, 7 days incubation; for inhibition at 10 µM: read-out: DLD-1 wild-type % inh at 10 μM; for IC50: 50 cells/well. Here is the method:
as §1

Chain of PARP1 (P09874 whole entry): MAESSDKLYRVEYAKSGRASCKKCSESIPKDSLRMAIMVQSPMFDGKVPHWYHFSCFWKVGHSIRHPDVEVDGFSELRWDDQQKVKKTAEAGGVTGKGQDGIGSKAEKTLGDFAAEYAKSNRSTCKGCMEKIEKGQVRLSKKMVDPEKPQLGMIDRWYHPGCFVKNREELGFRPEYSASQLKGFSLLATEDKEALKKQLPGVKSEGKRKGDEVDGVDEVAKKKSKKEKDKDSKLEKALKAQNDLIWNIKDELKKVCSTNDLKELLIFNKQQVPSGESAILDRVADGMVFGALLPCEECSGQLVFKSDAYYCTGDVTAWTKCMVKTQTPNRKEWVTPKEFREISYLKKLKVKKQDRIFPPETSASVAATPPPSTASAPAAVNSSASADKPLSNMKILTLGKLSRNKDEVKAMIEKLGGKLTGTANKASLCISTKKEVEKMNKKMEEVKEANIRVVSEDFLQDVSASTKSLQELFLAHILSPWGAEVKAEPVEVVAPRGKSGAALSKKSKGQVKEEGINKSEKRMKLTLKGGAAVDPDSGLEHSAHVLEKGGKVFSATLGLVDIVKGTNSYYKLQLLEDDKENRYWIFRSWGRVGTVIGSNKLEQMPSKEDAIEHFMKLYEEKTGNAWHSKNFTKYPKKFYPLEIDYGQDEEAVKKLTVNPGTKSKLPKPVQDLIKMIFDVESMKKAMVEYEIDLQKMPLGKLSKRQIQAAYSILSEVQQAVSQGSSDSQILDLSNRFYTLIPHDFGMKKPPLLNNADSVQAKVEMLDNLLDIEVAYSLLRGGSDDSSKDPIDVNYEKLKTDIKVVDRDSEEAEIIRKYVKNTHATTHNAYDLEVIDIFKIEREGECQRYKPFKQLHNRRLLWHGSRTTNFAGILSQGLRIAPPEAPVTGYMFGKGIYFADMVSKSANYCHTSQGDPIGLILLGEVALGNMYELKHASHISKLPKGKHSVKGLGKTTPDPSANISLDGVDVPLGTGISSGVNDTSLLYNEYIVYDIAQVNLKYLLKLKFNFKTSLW
Chain of recombinant human PARP2 (Q9UGN5 whole entry): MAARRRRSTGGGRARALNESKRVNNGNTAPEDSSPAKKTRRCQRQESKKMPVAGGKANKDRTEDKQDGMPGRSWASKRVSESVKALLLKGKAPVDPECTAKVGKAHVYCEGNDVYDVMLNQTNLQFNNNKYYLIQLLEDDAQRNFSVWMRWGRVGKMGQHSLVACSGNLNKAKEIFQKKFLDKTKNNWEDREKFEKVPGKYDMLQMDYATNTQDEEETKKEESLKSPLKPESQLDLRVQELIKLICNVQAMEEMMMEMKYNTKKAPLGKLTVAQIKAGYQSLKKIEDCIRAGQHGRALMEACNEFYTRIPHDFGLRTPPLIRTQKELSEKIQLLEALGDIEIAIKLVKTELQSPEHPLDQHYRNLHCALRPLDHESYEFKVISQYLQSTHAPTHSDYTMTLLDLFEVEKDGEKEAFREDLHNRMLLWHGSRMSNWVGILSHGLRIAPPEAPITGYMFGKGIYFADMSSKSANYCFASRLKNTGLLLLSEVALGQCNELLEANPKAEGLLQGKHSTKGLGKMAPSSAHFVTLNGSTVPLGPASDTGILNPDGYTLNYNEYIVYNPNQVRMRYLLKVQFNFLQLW

The term IC50 denotes the midpoint of a concentration-inhibition curve. Turning to `CCn1c(=O)[nH]c2cc(CN3CCN(c4ccc(C(=O)NC)nc4C)CC3)cc(Br)c2c1=S` [Compound 501, 5-(4-((5-bromo-3-ethyl-2-oxo-4-thioxo-1,2,3,4-tetrahydroquinazolin-7-yl)methyl)piperazin-1-yl)-N,6-dimethylpicolinamide formate], the concentration for half-maximal inhibition (IC50) was below 100 nM in assay [1], above 3000 nM in assay [2], 300 to 3000 nM in assay [3] and above 3000 nM in assay [4]. The inhibition at 10 µM in assay [2] was 33 to 67%; in assay [4], below 33%.
On to `CCn1c(=O)[nH]c2cc(CN3CCN(c4ccc(C(=O)NC)cc4F)CC3)sc2c1=O` [Compound 232], for which the concentration for half-maximal inhibition (IC50) is below 100 nM in assay [1], above 3000 nM in assay [2], above 3000 nM in assay [3] and above 3000 nM in assay [4]. The results for the inhibition at 10 µM in assay [2] and in assay [4] were 33 to 67% and below 33%, respectively.
Consider `CCN1Cc2ccc(CN3CCN(c4ccc(F)cc4F)CC3)cc2NC1=O` [Compound 225, 7-{[4-(2,4-difluorophenyl)piperazin-1-yl]methyl}-3-ethyl-1,4-dihydroquinazolin-2-one], for which the IC50 is below 100 nM in assay [1], above 3000 nM in assay [3] and above 3000 nM in assay [4]. Besides, the values for the inhibition at 10 µM in assay [2] and in assay [4] were 33 to 67% and below 33%, respectively.
Regarding `CCn1c(=O)[nH]c2cc(CN3CCN(c4cnc5c(NC)nccc5c4)CC3)sc2c1=O` [Compound 360, 3-ethyl-6-((4-(8-(methylamino)-1,7-naphthyridin-3-yl)piperazin-1-yl)methyl)thieno[3,2-d]pyrimidine-2,4(1H,3H)-dione formate], the 50% inhibitory concentration (IC50) in assay [1] is below 100 nM; in assay [2], above 3000 nM; in assay [3] it was above 3000 nM; in assay [4] it was above 3000 nM. Moreover, the inhibition at 10 µM in assay [2] and in assay [4] was 33 to 67% throughout.
As for `CCn1c(=O)[nH]c2sc(CN3CCN(c4ccc(C(=O)NC)nc4)CC3)cc2c1=O` [Compound 60, 5-(4-((3-ethyl-2,4-dioxo-1,2,3,4-tetrahydrothieno[2,3-d]pyrimidin-6-yl)methyl)piperazin-1-yl)-N-methylpicolinamide formate], the figures for the 50% inhibitory concentration (IC50) in assay [1] and in assay [3] were 100 to 3000 nM and above 3000 nM, respectively. The inhibition at 10 µM in assay [2] was 33 to 67%; in assay [4], below 33%.
As for `CCn1c(=O)[nH]c2cc(CN3CCN(c4ccc(F)cc4F)CC3)ccc2c1=O` [Compound 226, 7-{[4-(2,4-difluorophenyl)piperazin-1-yl]methyl}-3-ethyl-1H-quinazoline-2,4-dione formate], the figures for the IC50 in assay [1], in assay [3] and in assay [4] were below 100 nM, above 3000 nM and above 3000 nM, respectively. Besides, the inhibition at 10 µM is 33 to 67% in assay [2] and below 33% in assay [4].
For the compound `CCn1c(=O)[nH]c2cc(CN3CCN(c4ccc(C(N)=O)nc4C)CC3)sc2c1=O` [Compound 516, 5-(4-((3-ethyl-2,4-dioxo-1,2,3,4-tetrahydrothieno[3,2-d]pyrimidin-6-yl)methyl)piperazin-1-yl)-6-methylpicolinamide], the concentration for half-maximal inhibition (IC50) in assay [1] is below 100 nM; in assay [2], above 3000 nM; in assay [3] it was above 3000 nM; in assay [4], above 3000 nM. For the same compound, the inhibition at 10 µM in assay [2] is 33 to 67%; in assay [4], below 33%.
With `CCn1c(=O)[nH]c2cc(CN3CCN4c5ccc(C(=O)NC)nc5OC[C@H]4C3)sc2c1=O` [Compound 524, (R)-3-((3-ethyl-2,4-dioxo-1,2,3,4-tetrahydrothieno[3,2-d]pyrimidin-6-yl)methyl)-N-methyl-1,2,3,4,4a,5-hexahydropyrazino[1,2-d]pyrido[2,3-b][1,4]oxazine-8-carboxamide], the half-maximal inhibitory concentration (IC50) in assay [1] was below 100 nM; in assay [2], above 3000 nM; in assay [3] it was above 3000 nM. Also, the inhibition at 10 µM was 33 to 67% in assay [2] and below 33% in assay [4].
In the case of `CCN1Cc2ccc(CN3CCN(c4ccc(C(=O)NC)nc4C)CC3)cc2NC1=O` [Compound 202, 5-{4-[(3-ethyl-2-oxo-1,4-dihydroquinazolin-7-yl)methyl]piperazin-1-yl}-N,6-dimethylpyridine-2-carboxamide], the IC50 is below 100 nM in assay [1], below 300 nM in assay [3] and above 3000 nM in assay [4]. The figures for the inhibition at 10 µM in assay [2] and in assay [4] were 33 to 67% and below 33%, respectively.
For `CCn1c(=O)[nH]c2cc(CN3CC4(C3)CN(c3ccc(C(=O)NC)nc3)C4)ccc2c1=O` [Compound 100, 5-{6-[(3-ethyl-2,4-dioxo-1,2,3,4-tetrahydroquinazolin-7-yl)methyl]-2,6-diazaspiro[3.3]heptan-2-yl}-N-methylpyridine-2-carboxamide hemiformate], the 50% inhibitory concentration (IC50) was 100 to 3000 nM in assay [1], above 3000 nM in assay [2], above 3000 nM in assay [3] and above 3000 nM in assay [4]. The inhibition at 10 µM was 33 to 67% in assay [2] and below 33% in assay [4].
`CCn1c(=O)[nH]c2cc(CN3CCN(c4ccc(C(=O)NC)nc4C)CC3)c(Br)cc2c1=S` [Compound 504, 5-(4-((6-bromo-3-ethyl-2-oxo-4-thioxo-1,2,3,4-tetrahydroquinazolin-7-yl)methyl)piperazin-1-yl)-N,6-dimethylpicolinamide]: the IC50 in assay [1] was 100 to 3000 nM; in assay [2], above 3000 nM; in assay [3] it was 300 to 3000 nM; in assay [4], above 3000 nM. Moreover, the inhibition at 10 µM in assay [2] was 33 to 67%; in assay [4], below 33%.
On to `CCn1c(=O)[nH]c2cc(C=C3CCN(c4ccc(C(=O)NC)nc4C)CC3)ccc2c1=S` [Compound 507, 5-(4-((3-ethyl-2-oxo-4-thioxo-1,2,3,4-tetrahydroquinazolin-7-yl)methylene)piperidin-1-yl)-N,6-dimethylpicolinamide], for which the IC50 in assay [1] was below 100 nM; in assay [2] it was above 3000 nM; in assay [3] it was above 3000 nM; in assay [4], above 3000 nM. Besides, the results for the inhibition at 10 µM in assay [2] and in assay [4] were 33 to 67% and above 67%, respectively.
